# From patent US9018188B2, “MicroRNA inhibitors” (Ottawa Hospital Research Institute, priority 2011, dated 2015)
# What was measured:
# hindlimbs = experiment: Thermographic imaging of hindlimb surface temperature; format: in vivo, mouse
# Experimental: Mouse thermographic imaging was performed with a FUR T640 infrared camera with highest sensitivity set to ˜35° C. Control- or miR-133 ASO treated C57BL/6 male mice fed with either a regular diet or a high fat diet were shaved at both of the hindlimbs one day before the imaging. Subject mice were quickly anesthetized under ˜1% isoflurane and thermographic images were taken immediately after the mice were anesthetized (within 2 minutes). Data analysis was performed using FUR QuickReport software with measuring crosses set on the TA muscle areas on lower hindlimbs and the neck areas.
# Fndc5 = experiment: qRT-PCR of Fndc5 in ASO treated muscles; format: in vivo, mouse; conditions: both RD and HFD conditions
# Experimental: Normalized UCP1 levels were calculated based on the densitometry analysis of the UCP1 immunoblot and the α-Tubulin immunoblot. The interscapular brown adipose tissue (iBAT) were included as a control. Asterisk denotes the loading of the iBAT lanes on the UCP1 immunoblot was 1/100 of other lanes to avoid overloading. (B) Immunohistochemistry (IHC) of UCP1 protein reveal miR-133 antagonism induced beige adipocytes within inguinal and epididymal white adipose tissues. […] Error bars: S.E.M., asterisk: significant pair-wise comparison by t-test, *: p≦0.05, **: p≦0.01, ***: p≦0.001.
# Total RNA was extracted from cells by TRIzol or Arcturus® PicoPure® RNA Isolation Kit (Applied Biosystems) following manufactures' recommendations. For RT-qPCR of mRNAs, total RNAs were reverse transcribed into cDNAs by SuperScript III (Invitrogen) and a mixture of oligodT18-20 primers and random hexamers. microRNA RT-qPCRs were performed as previously described (Shi and Chiang, 2005).
# IL-1β and TNF-α = conditions: mouse, in vivo
# let-7a microRNA = experiment: RT-qPCR of let-7a expression after intramuscular ASO injection (specificity); format: in vivo, mouse; conditions: intramuscular administration
# Description: To investigate miR-133 function in brown adipose determination of satellite cells in vivo, Applicant synthesized miR-133 antagomiR (miR-133 antisense oligonucleotide (ASO)) with an antisense sequence to both miR-133a and miR-133b, as well as a control “antagomiR” (control ASO) with the same chemical modifications and not antisense to any mouse gene or EST sequence (see Experimental Procedures). Applicant performed lineage tracing to distinguish effects of miR-133 ASO on satellite cells versus other cell types. Six week old Pax7-CreER; R26R-tdTomato mice were treated with tamoxifin as before (5 consecutive daily injections), then aged to 10 weeks of age prior to initiating the experiment. Control ASO versus miR-133 ASO were injected into tibialis anterior (TA) muscles 3 days following saline injection (quiescent state) or cardiotoxin injection (to induce activation). After one month, RT-qPCR was performed using RNA isolated from several tissues to evaluate the efficacy and scope of miR-133 ASO administration.
# To induce brown adipocytes in vivo, 10 mg/mL Cardiotoxin solution (50 μl) was intramuscularly injected into TA muscles of 10-week old Pax7-CreER/R26R-tdTomato mice (FIG. 4) or C57BL/6 mice (FIG. 5 and FIG. 6). Alternatively, frozen injury was performed by applying liquid nitrogen cooled tweezers tips directly onto the anterior sides of TA muscles. […]
# [1] = Body weight and fat depot weights after ASO treatment during TA muscle regeneration; format: in vivo, mouse
# Experimental: Treated and control C57BL/6 male mice were raised on either RD or HFD in individual cages at 22° C. (n=5 per treatment per diet group). In both diet groups, miR-133 ASO treated mice were obviously leaner than the control mice at 4-month after treatment (FIG. 6A).
# To induce brown adipocytes in vivo, 10 mg/mL Cardiotoxin solution (50 μl) was intramuscularly injected into TA muscles of 10-week old Pax7-CreER/R26R-tdTomato mice (FIG. 4) or C57BL/6 mice (FIG. 5 and FIG. 6). Alternatively, frozen injury was performed by applying liquid nitrogen cooled tweezers tips directly onto the anterior sides of TA muscles. After 3 days, 20 μg of miR-133 antagomiR or control antagomiR in saline (50 μl) was intramuscularly injected into the same injured TA muscles (on right hindlimbs). To test efficacy of miR-133 ASO in intact muscles, saline, instead of Cardiotoxin, was injected to TA muscles before miR-133 ASO administration (FIGS. 4A, 4B). miR-133 antagomiR and scramble antagomiR were designed as previously described (Krutzfeldt et al., 2005).
substance,measurement,setting,value
*mA*mUmAmGmCmUmGmGmUmUmGmAmAmGmGmGmGmAmC*mC*mA*mA*mAChl [miR-133 ASO],surface temperature of treated hindlimbs higher than control hindlimbs,hindlimbs; mice fed with HFD,0.9 °C
same,surface temperature of treated hindlimbs higher than control hindlimbs,hindlimbs; mice fed with RD,0.7 °C
same,expression of Fndc5 compared to control muscles,Fndc5,increased
same,expression of IL-1β and TNF-α between control- and treated muscles,IL-1β and TNF-α,no difference
same,let-7a microRNA expression,let-7a microRNA,no effect
same,gain in body weight,"[1]; 4-month period after ASO administration, RD or HFD, C57BL/6 male",reduced gain in body weight
same,igWAT and epiWAT weights,"[1]; mouse, in vivo",significant reduction
same,mass of iBAT depots and treated TA muscles,"[1]; mouse, in vivo",unaffected
